Data on two compounds can be found in paper PMC9889419 (Pharmacological Reports, 2022).

Where a name gives a salt, the structure may show the parent alone. Read-outs that look alike come from different tables or passages of the source.

The subject of series [1] is NMDA. Nature of the series: Electrophysiology studies (Test 17). It is filed as cell-based. Conditions: 100 uM, holding potential -70 mV. An excerpt:
Solvent Code: DMSO Solvent Prep: 257.759
Test Add CompoundConc.(uM) # Cells % Control +/- SEM
(1 picture or pasted object on this page, not shown here)

The subject of series [2] is normotensive anaesthetized rats. Nature of the series: Influence on blood pressure. Conditions: 5 mg/kg iv, immediately after administration. It is filed as in vivo. The method, then:
Influence on blood pressure in rats. Rats were anaesthetized with thiopental (75 mg/kg ip). The right carotid artery was cannulated with polyethylene tube filled with heparin in saline to facilitate pressure measurements using a Datamax apparatus (Columbus Instruments).

Series [3] in a line: Pharmacokinetics in plasma. It is filed as in vivo, rats. Particulars: for bioavailability / AUC(0-t) / C0 / MRT / clearance / Vd / k el / CL/F / Cmax / Tmax / Vd/F: male, Wistar, rat, plasma; for bioavailability: po; for bioavailability / AUC(0-t) / C0 / MRT / clearance / Vd / k el / CL/F / Cmax / Tmax / Vd/F / t0.5λz: rats; for Vd: read-out: Vz; for k el: read-out: λz (converted); for Vd/F: read-out: Vz/F. On the procedure: Pharmacokinetic study design. Male Wistar rats (250–300 g) bred in-house from progenitors obtained from Charles River Laboratories (Sulzfed, Germany) were used in this study. Animals were fasted overnight prior to drug administration but had free access to water. […] Moreover, this compound dissolved in the same solvent was administered orally (po) by oral gavage at two doses (50 and 100 mg/kg) (n = 4). Blood samples were collected from the catheter at various time points up to 5 h. […] The animals were anaesthetized (50/7.5 mg/kg ketamine/xylazine, ip) and sacrificed by decapitation at 5, 15, 30, 60, 120, 180, and 300 min after compound administration (n = 4 per time point). Blood was collected into heparinized tubes and organs such as liver, brain, lungs, kidneys, and heart were harvested. The blood samples were centrifuged at 4000 rpm for 10 min (EBA 12R, Hettich, Germany). Plasma and organs were stored at − 80 °C until analysis.
Determination of KM-408 in plasma and tissue homogenates. Before analysis, tissue samples were homogenized in phosphate-buffered saline, pH 7.4 (1:4, w/v) with a tissue homogenizer (TH220; Omni International, Inc., Warrenton, VA, USA). Plasma (100 μL) or homogenate samples (500 μL) were mixed with an internal standard (IS) solution (R-( +)-propranolol, 4 μg/mL in methanol). Then, 20 μL of sodium carbonate (0.125 M) was added to each tube and the samples were extracted with 3 mL of diethyl ether by vortexing for 1 min. After centrifugation (3000 rpm, 15 min), the organic phase was transferred to a new tube and evaporated to dryness under a gentle stream nitrogen at 37 °C in a water bath. The dry residue was reconstituted in 100 μL of acetonitrile. Subsequently, 50 μL of 0.2 M borate buffer (pH = 7.0) and 50 μL of 6 mM FMOC-Cl solution in acetonitrile were added. After vortex-mixing for 1 min, the samples were kept for 30 min at 40 °C in a dry heat sterilizer (model MOV-112S, Sanyo, Japan). The reaction was stopped by the addition of 0.1 M solution of glycine in water (30 μL) and vortexing for 1 min. The reaction mixture was transferred directly into the autosampler vials. The chromatographic system (Merck-HITACHI, Japan) consisted of an L-2485 spectrofluorimetric detector operating at the excitation and emission wavelengths of 267 and 316 nm, respectively, an L-2130 pump, an L-2350 column oven, and an L-2200 autosampler. The EZChrom Elite Client/Server version 3.2 (Agilent Technologies Inc.) was used for data acquisition and processing. […] The column temperature was maintained at 50 °C. The mobile phase consisted of a mixture of acetonitrile and water (67:33, v/v), and pumped at a flow rate of 1 mL/min.
Pharmacokinetic data analysis. Plasma and tissue concentration versus time profiles were analyzed by the non-compartmental approach in Phoenix WinNonlin v. 6.3 software (Pharsight Corporation, Mountain View, CA, USA). The peak concentration (Cmax) and the time to reach Cmax (tmax) were obtained directly from individual concentration–time profiles. The initial concentration (C0) after an iv dosing was obtained by extrapolation to zero time. The linear trapezoidal rule was applied to calculate the areas under the concentration–time curve (AUC) from the time of dosing to the last measured data point (AUC0-t) or infinity (AUC0-∞). The terminal slope (λz) was estimated by linear regression and the terminal half-life (t0.5λz) was calculated as ln2/λz. The volume of distribution based on the terminal phase (Vz) was calculated as: Dose/(λz ∙ AUC0-∞), whereas clearance (CL) was obtained from the following equation: Dose/AUC0-∞. The mean residence time (MRT) was defined as: AUMC0-∞/AUC0-∞, where AUMC is the area under the first moment curve. The absolute bioavailability (Fa) was calculated according to the equation: (AUCpo./Dosepo)/(AUCiv/Doseiv).

Regarding `CCC(CO)NCCOc1c(C)cccc1Cl` (centres unmarked) [Compound 4, R,S-2-((2-(2-chloro-6-methylphenoxy)ethyl)amino)butan-1-ol], the “% Control +/- SEM” value in series [1] amounted to 63%.
On to `CCC(CO)NCCOc1c(C)cccc1Cl` (centres unmarked) [KM-408, R,S-2-((2-(2-chloro-6-methylphenoxy)ethyl)amino)butan-1-ol hydrochloride], for which, in series [2], the “lowering of diastolic blood pressure” value is “approximately 21 mmHg” and the “lowering of systolic blood pressure” value is “approximately 21 mmHg”. Also, the plasma concentration in series [3] (5 mg/kg iv, immediately after administration) is listed as 1.48*10^–5 M. In addition, the bioavailability in series [3] (50 mg/kg, po 50 mg/kg, read-out: F) worked out at 3.9%. Besides, the bioavailability in series [3] (100 mg/kg, po 100 mg/kg, read-out: F) is 3.6%. The bioavailability in series [3] (100 mg/kg, po 50 and 100 mg/kg, read-out: absolute bioavailability) is 3.6 to 3.9%. In series [3] (iv 1 mg/kg), this compound showed an AUC(0-t) of 0.207 µg·h/mL, a C0 of 0.371 µg/mL, an MRT of 51.7 min and a clearance of 4.8 L/h/kg. In addition, in series [3] (iv 1 mg/kg), the Vd worked out at 2.53 L/kg, the k el was 0.000533 s⁻¹ and the t0.5λz was 21.80 min. In series [3] (iv 5 mg/kg), this compound showed an AUC(0-t) of 1.21 µg·h/mL, a C0 of 4.36 µg/mL, an MRT of 43.5 min and a clearance of 4.2 L/h/kg. In series [3] (iv 5 mg/kg), the Vd came to 3.77 L/kg, the k el was 0.0003 s⁻¹ and the t0.5λz was 37.94 min. For the same compound, in series [3] (iv 10 mg/kg), the AUC(0-t) was 2.72 µg·h/mL, the C0 came to 5.33 µg/mL, the MRT was 42.3 min and the clearance was found to be 3.6 L/h/kg. Further, in series [3] (iv 10 mg/kg), the Vd worked out at 2.3 L/kg, the k el is 0.00045 s⁻¹ and the t0.5λz turned out to be 26.02 min. In series [3] (po 50 mg/kg), this compound showed an AUC(0-t) of 0.43 µg·h/mL, a CL/F of 117 L/h/kg, a Cmax of 0.313 µg/mL and an MRT of 79.1 min. In series [3] (po 50 mg/kg), the Tmax was 30 min, the Vd/F is 80.3 L/kg, the k el is 0.000383 s⁻¹ and the t0.5λz is given as 30.59 min. Further, in series [3] (po 100 mg/kg), the AUC(0-t) was 0.807 µg·h/mL, the CL/F was 124 L/h/kg, the Cmax is 0.573 µg/mL and the MRT is 83 min. Besides, in series [3] (po 100 mg/kg), the Tmax is 30 min, the Vd/F came to 104 L/kg, the k el is 0.000333 s⁻¹ and the t0.5λz is on record as 34.98 min.
